Measurements taken from the kinase profiling compilation of Christmann-Franck et al. (2016).

Experiments:
Assay in all cases: radiometric filter-binding kinase assay, Kinase HotSpot
Details in all cases: compound 0.5 µM; ATP 10 µM
CDK5 CDK5R1 p35 (human) = CDK5 CDK5R1 p35 (human) (UniProt Q00535+Q15078)
PLK3 (human) = PLK3 (human) (UniProt Q9H4B4)
STK25 (human) = STK25 (human) (UniProt O00506)
NUAK2 (human) = NUAK2 (human) (UniProt Q9H093)
DCLK2 (human) = DCLK2 (human) (UniProt Q8N568)
SLK (human) = SLK (human) (UniProt Q9H2G2)
MAP3K9 (human) = MAP3K9 (human) (UniProt P80192)
CDK6 CCND1 (human) = CDK6 CCND1 (human) (UniProt Q00534+P24385)
CSNK1D (human) = CSNK1D (human) (UniProt P48730)
GSG2 (human) = GSG2 (human) (UniProt Q8TF76)
Chain of GSG2 (human) (Q8TF76 whole entry, looked up): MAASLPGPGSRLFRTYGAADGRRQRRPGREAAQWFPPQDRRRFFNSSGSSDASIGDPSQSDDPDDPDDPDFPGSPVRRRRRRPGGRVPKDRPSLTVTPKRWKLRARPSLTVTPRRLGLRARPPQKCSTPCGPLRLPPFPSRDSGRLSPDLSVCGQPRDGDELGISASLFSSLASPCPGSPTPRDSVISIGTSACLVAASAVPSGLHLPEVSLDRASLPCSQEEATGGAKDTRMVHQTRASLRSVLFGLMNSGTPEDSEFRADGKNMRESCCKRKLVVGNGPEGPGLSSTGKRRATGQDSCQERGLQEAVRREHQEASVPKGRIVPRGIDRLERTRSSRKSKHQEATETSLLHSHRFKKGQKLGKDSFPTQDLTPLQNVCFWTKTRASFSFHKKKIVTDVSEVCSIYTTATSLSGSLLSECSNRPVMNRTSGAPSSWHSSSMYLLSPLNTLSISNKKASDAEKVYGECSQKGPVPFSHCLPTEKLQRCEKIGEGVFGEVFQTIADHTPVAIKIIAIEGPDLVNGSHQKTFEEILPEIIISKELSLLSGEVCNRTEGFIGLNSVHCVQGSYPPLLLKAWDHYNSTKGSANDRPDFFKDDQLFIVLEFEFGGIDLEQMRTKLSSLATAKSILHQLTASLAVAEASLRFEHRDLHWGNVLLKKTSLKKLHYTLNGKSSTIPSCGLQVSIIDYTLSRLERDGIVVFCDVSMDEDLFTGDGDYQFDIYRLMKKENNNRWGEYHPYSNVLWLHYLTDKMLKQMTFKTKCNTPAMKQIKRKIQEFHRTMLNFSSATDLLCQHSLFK

MST1R (human) = MST1R (human) (UniProt Q04912)
DMPK (human) = DMPK (human) (UniProt Q09013)
PIM2 (human) = PIM2 (human) (UniProt Q9P1W9)
Chain of PIM2 (human) (Q9P1W9 whole entry, looked up): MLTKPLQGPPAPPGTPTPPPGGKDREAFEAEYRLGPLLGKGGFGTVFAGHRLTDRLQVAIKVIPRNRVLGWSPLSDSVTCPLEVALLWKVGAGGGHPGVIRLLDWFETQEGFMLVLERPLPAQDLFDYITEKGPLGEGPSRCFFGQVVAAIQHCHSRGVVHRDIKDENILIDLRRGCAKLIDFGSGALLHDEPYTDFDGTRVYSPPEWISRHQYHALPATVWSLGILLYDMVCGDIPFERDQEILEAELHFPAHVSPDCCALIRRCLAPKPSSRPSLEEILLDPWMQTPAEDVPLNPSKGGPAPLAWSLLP

NEK6 (human) = NEK6 (human) (UniProt Q9HC98)
Chain of NEK6 (human) (Q9HC98 whole entry, looked up): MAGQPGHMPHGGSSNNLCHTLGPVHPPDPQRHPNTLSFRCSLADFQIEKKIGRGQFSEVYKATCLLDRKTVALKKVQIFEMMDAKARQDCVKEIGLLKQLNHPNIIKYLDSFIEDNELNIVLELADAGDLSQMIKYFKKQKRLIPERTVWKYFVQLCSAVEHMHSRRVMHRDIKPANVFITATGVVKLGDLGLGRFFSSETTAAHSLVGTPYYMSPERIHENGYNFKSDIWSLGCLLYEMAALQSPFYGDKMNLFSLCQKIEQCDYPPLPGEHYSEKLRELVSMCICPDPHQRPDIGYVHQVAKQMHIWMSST

FGFR2 (human) = FGFR2 (human) (UniProt P21802)
DYRK1B (human) = DYRK1B (human) (UniProt Q9Y463)
NTRK3 (human) = NTRK3 (human) (UniProt Q16288)
PHKG2 (human) = PHKG2 (human) (UniProt P15735)
PTK2B (human) = PTK2B (human) (UniProt Q14289)
NEK2 (human) = NEK2 (human) (UniProt P51955)
Chain of NEK2 (human) (P51955 whole entry, looked up): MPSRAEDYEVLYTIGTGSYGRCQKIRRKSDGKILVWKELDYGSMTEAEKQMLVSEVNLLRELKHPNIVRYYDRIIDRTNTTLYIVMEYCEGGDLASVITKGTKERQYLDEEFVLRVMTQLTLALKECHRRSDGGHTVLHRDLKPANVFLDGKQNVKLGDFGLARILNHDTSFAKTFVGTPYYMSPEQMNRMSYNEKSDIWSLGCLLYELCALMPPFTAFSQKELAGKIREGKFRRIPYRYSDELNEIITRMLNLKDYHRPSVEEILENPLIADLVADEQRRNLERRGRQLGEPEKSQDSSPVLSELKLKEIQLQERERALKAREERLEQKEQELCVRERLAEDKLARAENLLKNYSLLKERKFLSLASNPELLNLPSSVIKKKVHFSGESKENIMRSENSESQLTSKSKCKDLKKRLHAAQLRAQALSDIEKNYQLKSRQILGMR

MERTK (human) = MERTK (human) (UniProt Q12866)
EPHB2 (human) = EPHB2 (human) (UniProt P29323)
PLK2 (human) = PLK2 (human) (UniProt Q9NYY3)
GSK3B (human) = GSK3B (human) (UniProt P49841)
MARK2 (human) = MARK2 (human) (UniProt Q7KZI7)
Chain of MARK2 (human) (Q7KZI7 whole entry, looked up): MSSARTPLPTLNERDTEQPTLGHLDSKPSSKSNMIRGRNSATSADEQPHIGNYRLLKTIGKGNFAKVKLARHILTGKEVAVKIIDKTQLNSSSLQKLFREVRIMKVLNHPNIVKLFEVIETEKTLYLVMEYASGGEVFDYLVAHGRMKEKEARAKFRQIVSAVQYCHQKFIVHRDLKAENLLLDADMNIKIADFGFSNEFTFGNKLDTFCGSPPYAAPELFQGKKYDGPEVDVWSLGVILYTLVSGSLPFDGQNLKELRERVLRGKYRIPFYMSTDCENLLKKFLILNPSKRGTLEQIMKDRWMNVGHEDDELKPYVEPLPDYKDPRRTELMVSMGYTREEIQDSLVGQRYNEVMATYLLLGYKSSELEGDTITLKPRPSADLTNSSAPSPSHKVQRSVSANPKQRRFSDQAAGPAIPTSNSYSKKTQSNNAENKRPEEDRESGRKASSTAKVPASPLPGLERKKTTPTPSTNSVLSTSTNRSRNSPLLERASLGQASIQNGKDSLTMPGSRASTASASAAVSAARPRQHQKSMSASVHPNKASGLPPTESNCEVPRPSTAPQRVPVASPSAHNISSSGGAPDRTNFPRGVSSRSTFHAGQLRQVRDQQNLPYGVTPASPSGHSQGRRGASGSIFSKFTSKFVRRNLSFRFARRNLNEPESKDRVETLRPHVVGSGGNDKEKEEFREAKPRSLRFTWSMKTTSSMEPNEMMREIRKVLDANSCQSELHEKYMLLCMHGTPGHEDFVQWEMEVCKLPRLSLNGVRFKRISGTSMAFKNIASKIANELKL

STK17A (human) = STK17A (human) (UniProt Q9UEE5)
BRSK2 (human) = BRSK2 (human) (UniProt Q8IWQ3)
MATK (human) = MATK (human) (UniProt P42679)
Chain of MATK (human) (P42679 whole entry, looked up): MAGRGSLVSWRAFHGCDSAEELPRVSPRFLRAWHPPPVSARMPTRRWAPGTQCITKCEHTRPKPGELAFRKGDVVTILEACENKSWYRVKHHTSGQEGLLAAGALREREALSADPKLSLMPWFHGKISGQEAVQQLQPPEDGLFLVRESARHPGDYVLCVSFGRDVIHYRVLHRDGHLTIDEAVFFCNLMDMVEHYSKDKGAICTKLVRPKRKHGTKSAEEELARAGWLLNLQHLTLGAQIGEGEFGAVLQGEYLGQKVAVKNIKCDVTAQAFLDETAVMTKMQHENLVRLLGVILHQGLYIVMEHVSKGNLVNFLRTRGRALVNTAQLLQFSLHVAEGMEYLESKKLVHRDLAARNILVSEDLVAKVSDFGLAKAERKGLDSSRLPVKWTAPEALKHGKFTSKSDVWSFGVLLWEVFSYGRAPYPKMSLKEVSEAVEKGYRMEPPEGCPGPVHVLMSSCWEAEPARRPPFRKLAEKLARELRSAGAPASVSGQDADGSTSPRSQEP

DYRK4 (human) = DYRK4 (human) (UniProt Q9NR20)
PASK (human) = PASK (human) (UniProt Q96RG2)
EPHB4 (human) = EPHB4 (human) (UniProt P54760)
WNK2 (human) = WNK2 (human) (UniProt Q9Y3S1)
MUSK (human) = MUSK (human) (UniProt O15146)
MAPK8 (human) = MAPK8 (human) (UniProt P45983)
CSNK1E (human) = CSNK1E (human) (UniProt P49674)
Chain of CSNK1E (human) (P49674 whole entry, looked up): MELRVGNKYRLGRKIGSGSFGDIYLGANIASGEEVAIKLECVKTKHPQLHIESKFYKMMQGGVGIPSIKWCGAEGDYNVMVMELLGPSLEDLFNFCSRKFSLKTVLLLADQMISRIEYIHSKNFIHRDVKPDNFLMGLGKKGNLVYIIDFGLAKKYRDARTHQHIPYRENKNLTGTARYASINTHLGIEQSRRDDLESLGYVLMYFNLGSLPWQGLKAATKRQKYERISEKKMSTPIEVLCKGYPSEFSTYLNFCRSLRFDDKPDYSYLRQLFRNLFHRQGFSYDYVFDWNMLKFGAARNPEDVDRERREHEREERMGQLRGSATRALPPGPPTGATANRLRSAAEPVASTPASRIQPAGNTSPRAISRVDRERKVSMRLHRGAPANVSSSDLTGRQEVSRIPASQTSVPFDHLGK

IRAK1 (human) = IRAK1 (human) (UniProt P51617)
Chain of IRAK1 (human) (P51617 whole entry, looked up): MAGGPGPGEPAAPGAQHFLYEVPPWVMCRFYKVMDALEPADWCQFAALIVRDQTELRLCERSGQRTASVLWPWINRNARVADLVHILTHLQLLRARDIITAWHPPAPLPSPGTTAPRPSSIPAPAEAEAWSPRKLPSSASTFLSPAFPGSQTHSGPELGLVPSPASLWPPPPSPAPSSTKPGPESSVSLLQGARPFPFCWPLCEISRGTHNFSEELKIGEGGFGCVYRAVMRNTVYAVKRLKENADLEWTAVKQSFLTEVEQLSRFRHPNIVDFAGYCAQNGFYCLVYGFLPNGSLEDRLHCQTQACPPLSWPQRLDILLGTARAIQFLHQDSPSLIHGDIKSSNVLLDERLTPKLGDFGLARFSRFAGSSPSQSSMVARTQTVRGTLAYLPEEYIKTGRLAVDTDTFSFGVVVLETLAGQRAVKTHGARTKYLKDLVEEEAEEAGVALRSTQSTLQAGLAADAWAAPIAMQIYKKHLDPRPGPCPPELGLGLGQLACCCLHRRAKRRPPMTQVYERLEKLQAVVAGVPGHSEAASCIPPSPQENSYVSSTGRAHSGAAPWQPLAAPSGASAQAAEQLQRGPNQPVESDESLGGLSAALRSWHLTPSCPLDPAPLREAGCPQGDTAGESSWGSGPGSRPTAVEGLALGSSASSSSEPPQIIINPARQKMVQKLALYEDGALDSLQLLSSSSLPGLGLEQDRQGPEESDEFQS

CAMK1G (human) = CAMK1G (human) (UniProt Q96NX5)
NTRK1 (human) = NTRK1 (human) (UniProt P04629)
[1] = biological target: JAK1 JH1 catalytic (human) (UniProt P23458)
CSNK1G3 (human) = CSNK1G3 (human) (UniProt Q9Y6M4)
FGFR1 (human) = FGFR1 (human) (UniProt P11362)
TYRO3 (human) = TYRO3 (human) (UniProt Q06418)

Chain of PLK3 (human) (Q9H4B4 whole entry, looked up): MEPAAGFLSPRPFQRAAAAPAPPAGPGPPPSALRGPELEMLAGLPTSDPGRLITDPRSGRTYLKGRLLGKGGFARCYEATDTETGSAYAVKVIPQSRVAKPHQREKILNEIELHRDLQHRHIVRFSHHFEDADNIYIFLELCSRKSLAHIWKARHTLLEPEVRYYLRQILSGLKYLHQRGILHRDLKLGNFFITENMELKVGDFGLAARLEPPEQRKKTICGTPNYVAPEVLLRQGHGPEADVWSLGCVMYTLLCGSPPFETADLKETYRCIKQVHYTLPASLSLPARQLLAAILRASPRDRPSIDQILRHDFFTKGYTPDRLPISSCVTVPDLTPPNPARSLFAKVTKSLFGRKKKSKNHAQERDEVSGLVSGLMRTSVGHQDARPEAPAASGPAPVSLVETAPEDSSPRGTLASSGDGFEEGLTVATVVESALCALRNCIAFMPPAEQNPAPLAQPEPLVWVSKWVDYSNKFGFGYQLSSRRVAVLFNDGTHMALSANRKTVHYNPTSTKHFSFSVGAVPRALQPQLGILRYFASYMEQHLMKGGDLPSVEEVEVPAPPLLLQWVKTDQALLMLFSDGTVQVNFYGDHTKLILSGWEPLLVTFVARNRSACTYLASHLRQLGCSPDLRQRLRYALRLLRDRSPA

SMILES: CCN1/C(=C/C(C)=O)Sc2ccc(OC)cc21
- residual activity (CDK5 CDK5R1 p35 (human)): 91.1%
- residual activity (PLK3 (human)): 99.4%
- residual activity (STK25 (human)): 98%
- residual activity (NUAK2 (human)): 107%
- residual activity (DCLK2 (human)): 97.9%
- residual activity (SLK (human)): 86.8%
- residual activity (MAP3K9 (human)): 98.8%
- residual activity (CDK6 CCND1 (human)): 108%
- residual activity (CSNK1D (human)): 54.2%
- residual activity (GSG2 (human)): 25%
- residual activity (MST1R (human)): 94.5%
- residual activity (DMPK (human)): 101%
- residual activity (PIM2 (human)): 102%
- residual activity (NEK6 (human)): 109%
- residual activity (FGFR2 (human)): 97.1%
- residual activity (DYRK1B (human)): 32.9%
- residual activity (NTRK3 (human)): 91.9%
- residual activity (PHKG2 (human)): 94.6%
- residual activity (PTK2B (human)): 97.8%
- residual activity (NEK2 (human)): 97.6%
- residual activity (MERTK (human)): 88.6%
- residual activity (EPHB2 (human)): 98.3%
- residual activity (PLK2 (human)): 100%
- residual activity (GSK3B (human)): 98.1%
- residual activity (MARK2 (human)): 89.5%
- residual activity (STK17A (human)): 99.3%
- residual activity (BRSK2 (human)): 89.5%
- residual activity (MATK (human)): 89.2%
- residual activity (DYRK4 (human)): 82.3%
- residual activity (PASK (human)): 72.8%
- residual activity (EPHB4 (human)): 92.4%
- residual activity (WNK2 (human)): 91.1%
- residual activity (MUSK (human)): 28.4%
- residual activity (MAPK8 (human)): 102%
- residual activity (CSNK1E (human)): 60.1%
- residual activity (IRAK1 (human)): 114%
- residual activity (CAMK1G (human)): 101%
- residual activity (NTRK1 (human)): 85.7%
- residual activity [1]: 98.9%

SMILES: C#Cc1cccc(Nc2ncnc3cc(OCCOC)c(OCCOC)cc23)c1
- residual activity (CDK5 CDK5R1 p35 (human)): 108%
- residual activity (PLK3 (human)): 102%
- residual activity (STK25 (human)): 99.4%
- residual activity (NUAK2 (human)): 95.3%
- residual activity (DCLK2 (human)): 102%
- residual activity (SLK (human)): 42%
- residual activity (MAP3K9 (human)): 111%
- residual activity (CDK6 CCND1 (human)): 98.7%
- residual activity (GSG2 (human)): 80.9%
- residual activity (MST1R (human)): 93.6%
- residual activity (DMPK (human)): 96.9%
- residual activity (PIM2 (human)): 97.9%
- residual activity (NEK6 (human)): 89.1%
- residual activity (CSNK1G3 (human)): 106%
- residual activity (FGFR2 (human)): 83.4%
- residual activity (DYRK1B (human)): 93.7%
- residual activity (NTRK3 (human)): 96%
- residual activity (PHKG2 (human)): 97.9%
- residual activity (PTK2B (human)): 97.6%
- residual activity (NEK2 (human)): 100%
- residual activity (MERTK (human)): 99%
- residual activity (EPHB2 (human)): 95.1%
- residual activity (PLK2 (human)): 104%
- residual activity (GSK3B (human)): 102%
- residual activity (MARK2 (human)): 129%
- residual activity (STK17A (human)): 99.7%
- residual activity (BRSK2 (human)): 100%
- residual activity (DYRK4 (human)): 101%
- residual activity (FGFR1 (human)): 99.1%
- residual activity (PASK (human)): 97.4%
- residual activity (MUSK (human)): 94.6%
- residual activity (CSNK1E (human)): 98.2%
- residual activity (IRAK1 (human)): 95.9%
- residual activity (CAMK1G (human)): 111%
- residual activity (NTRK1 (human)): 102%
- residual activity [1]: 91.2%

SMILES: Nc1nc(Nc2ccc(S(N)(=O)=O)cc2)nn1C(=O)c1c(F)cccc1F
- residual activity (CDK5 CDK5R1 p35 (human)): 0.212%
- residual activity (PLK3 (human)): 91.3%
- residual activity (STK25 (human)): 82.3%
- residual activity (NUAK2 (human)): 34%
- residual activity (DCLK2 (human)): 85.3%
- residual activity (SLK (human)): 19.1%
- residual activity (MAP3K9 (human)): 25.6%
- residual activity (CDK6 CCND1 (human)): 17.1%
- residual activity (CSNK1D (human)): 94.5%
- residual activity (GSG2 (human)): 107%
- residual activity (MST1R (human)): 115%
- residual activity (DMPK (human)): 93.2%
- residual activity (PIM2 (human)): 113%
- residual activity (NEK6 (human)): 102%
- residual activity (TYRO3 (human)): 98.6%
- residual activity (FGFR2 (human)): 79.7%
- residual activity (DYRK1B (human)): 87.6%
- residual activity (NTRK3 (human)): 37.6%
- residual activity (PHKG2 (human)): 102%
- residual activity (PTK2B (human)): 79.7%
- residual activity (NEK2 (human)): 94.8%
- residual activity (MERTK (human)): 70.2%
- residual activity (EPHB2 (human)): 96.1%
- residual activity (PLK2 (human)): 94.2%
- residual activity (GSK3B (human)): 22%
- residual activity (STK17A (human)): 83.9%
- residual activity (BRSK2 (human)): 49%
- residual activity (MATK (human)): 104%
- residual activity (DYRK4 (human)): 105%
- residual activity (PASK (human)): 91.1%
- residual activity (EPHB4 (human)): 81%
- residual activity (WNK2 (human)): 116%
- residual activity (MUSK (human)): 83.1%
- residual activity (MAPK8 (human)): 85.9%
- residual activity (CSNK1E (human)): 96.9%
- residual activity (IRAK1 (human)): 89.8%
- residual activity (CAMK1G (human)): 101%
- residual activity (NTRK1 (human)): 98.8%
- residual activity [1]: 5.19%

SMILES: O=C1Cc2c([nH]c3ccc([N+](=O)[O-])cc23)-c2ccccc2N1
- residual activity (CDK5 CDK5R1 p35 (human)): 7.98%
- residual activity (PLK3 (human)): 98.8%
- residual activity (STK25 (human)): 83.6%
- residual activity (NUAK2 (human)): 68.6%
- residual activity (DCLK2 (human)): 105%
- residual activity (SLK (human)): 96.2%
- residual activity (MAP3K9 (human)): 10.5%
- residual activity (CDK6 CCND1 (human)): 16.8%
- residual activity (GSG2 (human)): 106%
- residual activity (MST1R (human)): 103%
- residual activity (DMPK (human)): 91.6%
- residual activity (PIM2 (human)): 113%
- residual activity (NEK6 (human)): 97.1%
- residual activity (CSNK1G3 (human)): 90%
- residual activity (TYRO3 (human)): 96.7%
- residual activity (FGFR2 (human)): 96.7%
- residual activity (DYRK1B (human)): 87.5%
- residual activity (NTRK3 (human)): 63.4%
- residual activity (PHKG2 (human)): 101%
- residual activity (PTK2B (human)): 82.9%
- residual activity (NEK2 (human)): 92.4%
- residual activity (MERTK (human)): 83.1%
- residual activity (EPHB2 (human)): 101%
- residual activity (PLK2 (human)): 106%
- residual activity (GSK3B (human)): 2.68%
- residual activity (MARK2 (human)): 52.4%
- residual activity (STK17A (human)): 46.4%
- residual activity (BRSK2 (human)): 34.5%
- residual activity (MATK (human)): 98.9%
- residual activity (DYRK4 (human)): 106%
- residual activity (FGFR1 (human)): 88.6%
- residual activity (PASK (human)): 86.9%
- residual activity (EPHB4 (human)): 87.2%
- residual activity (WNK2 (human)): 116%
- residual activity (MUSK (human)): 68.5%
- residual activity (MAPK8 (human)): 99.6%
- residual activity (CSNK1E (human)): 95.9%
- residual activity (IRAK1 (human)): 93.1%
- residual activity (CAMK1G (human)): 96%
- residual activity (NTRK1 (human)): 107%
- residual activity [1]: 97.8%

SMILES: COc1cc2ncnc(Nc3ccc(F)c(Cl)c3)c2cc1OCCCN1CCOCC1
- residual activity (CDK5 CDK5R1 p35 (human)): 103%
- residual activity (PLK3 (human)): 103%
- residual activity (STK25 (human)): 97.4%
- residual activity (NUAK2 (human)): 96%
- residual activity (DCLK2 (human)): 101%
- residual activity (SLK (human)): 83.7%
- residual activity (MAP3K9 (human)): 110%
- residual activity (CDK6 CCND1 (human)): 98.7%
- residual activity (CSNK1D (human)): 90.4%
- residual activity (GSG2 (human)): 84%
- residual activity (MST1R (human)): 97.7%
- residual activity (DMPK (human)): 90.1%
- residual activity (PIM2 (human)): 96.2%
- residual activity (NEK6 (human)): 89.9%
- residual activity (CSNK1G3 (human)): 103%
- residual activity (TYRO3 (human)): 94.9%
- residual activity (FGFR2 (human)): 98.7%
- residual activity (DYRK1B (human)): 91.9%
- residual activity (NTRK3 (human)): 103%
- residual activity (PHKG2 (human)): 93.9%
- residual activity (PTK2B (human)): 98.9%
- residual activity (NEK2 (human)): 98.4%
- residual activity (MERTK (human)): 95.9%
- residual activity (EPHB2 (human)): 87.7%
- residual activity (PLK2 (human)): 100%
- residual activity (GSK3B (human)): 100%
- residual activity (MARK2 (human)): 119%
- residual activity (STK17A (human)): 96%
- residual activity (BRSK2 (human)): 103%
- residual activity (MATK (human)): 86.4%
- residual activity (DYRK4 (human)): 105%
- residual activity (FGFR1 (human)): 96.4%
- residual activity (PASK (human)): 97.9%
- residual activity (WNK2 (human)): 97.2%
- residual activity (MUSK (human)): 98.1%
- residual activity (MAPK8 (human)): 93.1%
- residual activity (CSNK1E (human)): 106%
- residual activity (IRAK1 (human)): 57.6%
- residual activity (CAMK1G (human)): 103%
- residual activity (NTRK1 (human)): 103%
- residual activity [1]: 102%
